In PubChem BioAssay AID1224920 (Broad Institute, 2016):
Several values for one entry are separate records, joined by “and”; a condition that tells them apart may be missing. Equal values may be shown once. Activity calls are given as the source filed them.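 The calls were made as follows: active = IC50 no higher than ten times the top tested dose; inconclusive = flat fit with 30 to 70% inhibition, or poor fit; inactive = IC50 above ten times the top dose.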

System: Clostridium difficile clinical isolate growth, OD600, 24 h
Assay: growth modulation of Clostridium difficile isolate – OD600, 9-point, retest, dose response (AID 1224920);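 also: inhibitors lower culture turbidity so OD600 falls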

| Structure (SMILES) | IC50 |
| --- | --- |
| O=C(Nc1ccccc1)N1C[C@@H]2N[C@H](C1)[C@@H]2c1ccc(/C=C/c2ccccc2)cc1 | 13 µM |
| Cc1ccc(S(=O)(=O)N2[C@@H]3CNC[C@H]2C3c2ccc(-c3cccc(F)c3)cc2)cc1 (some centres not stated) | 52.3 µM |
| CCNC(=O)C[C@@H]1CC[C@@H]2[C@H](COC[C@@H](O)CN2C(=O)Nc2ccc(C(F)(F)F)cc2)O1 | 31.6 µM |
| FC(F)(F)c1cccc(CN2[C@@H]3CNC[C@H]2[C@@H]3c2ccc(-c3cccnc3)cc2)c1 | 103 µM |
| COc1ccc(-c2ccc(C3[C@@H]4CN(C(=O)Nc5cccc(F)c5)C[C@H]3N4)cc2)cc1 (some centres not stated) | 26 µM |
| Cc1cccc(-c2ccc(C3[C@@H]4CN(Cc5cccc(F)c5)C[C@H]3N4)cc2)c1 (some centres not stated) | 5.89 µM and 8.61 µM |
| O=S(=O)(Cc1ccccc1)N1CCCCN2[C@H](CO)[C@H](c3ccc(-c4ccc(F)cc4)cc3)[C@H]2C1 | 42.5 µM |
| O=C(Nc1ccccc1F)N1CCCCN2[C@H](CO)[C@H](c3ccc(/C=C/c4ccccc4)cc3)[C@H]2C1 | 10.4 µM |
| O=C(Nc1ccc(C(F)(F)F)cc1)N1[C@@H]2CNC[C@H]1C2c1ccc(-c2ccccc2)cc1 (some centres not stated) | 18.2 µM and 28.6 µM |
| O=C(Nc1ccccc1)N1CCCCN2[C@@H](CO)[C@H](c3ccc(C#Cc4ccccc4)cc3)[C@@H]2C1 | 19.2 µM |
| COc1cccc(-c2ccc(C3[C@@H]4CN(Cc5ccccn5)C[C@H]3N4)cc2)c1 (some centres not stated) | 91.5 µM |
| COc1cccc(-c2ccc(C3[C@@H]4CN(C(=O)c5ccc(F)cc5)C[C@H]3N4)cc2)c1 (some centres not stated) | 65.4 µM |
| COc1ccccc1CN1C[C@@H]2N[C@H](C1)C2c1ccc(-c2ccccc2OC)cc1 (some centres not stated) | 35.3 µM and 38.3 µM |
| CC(C)CC#Cc1ccc([C@H]2[C@H](CO)N3CCCCN(C(=O)Nc4ccccc4)C[C@@H]23)cc1 | 11.1 µM |
| Cc1ccccc1-c1ccc(C2[C@@H]3CN(S(=O)(=O)c4ccccc4)C[C@H]2N3)cc1 (some centres not stated) | 56.1 µM |
| CCNC(=O)C[C@H]1CC[C@@H]2[C@H](COC[C@H](O)CN2C(=O)Nc2ccc(C(F)(F)F)cc2)O1 | 9.45 µM |
| N#Cc1ccc(-c2ccc3c(c2)[C@@H]2[C@@H](CCN2Cc2ccc4c(c2)OCO4)[C@@H](CO)N3)cc1 | 32.3 µM |
| O=S(=O)(c1ccc(F)cc1)N1C[C@@H]2N[C@H](C1)C2c1ccc(/C=C/c2ccccc2)cc1 (some centres not stated) | 8.8 µM |
| O=C(Nc1cccc(F)c1)N1C[C@@H]2N[C@H](C1)C2c1ccc(-c2ccccc2F)cc1 (some centres not stated) | 27 µM and 65.3 µM |
| Cc1ccc(-c2ccc([C@@H]3[C@H](CO)N4CCCCN(C(=O)Nc5ccccc5)C[C@@H]34)cc2)cc1 | 20.2 µM |
| O=C(Nc1ccccc1)N1CCCCN2[C@H](CO)[C@@H](c3ccc(C#Cc4ccccc4)cc3)[C@H]2C1 | 33.5 µM |
| COc1ccc(-c2ccc(C3[C@@H]4CN(Cc5cc(OC)cc(OC)c5)C[C@H]3N4)cc2)cc1 (some centres not stated) | 6.55 µM and 25.8 µM |

| Structure (SMILES) | IC50 |
| --- | --- |
| CCCC#Cc1ccc([C@@H]2[C@H](CO)N3CCCCN(S(=O)(=O)c4ccccc4C)C[C@@H]23)cc1 | 24 µM |
| O=C(Nc1ccc(C(F)(F)F)cc1)N1[C@@H]2CNC[C@H]1C2c1ccc(-c2ccc(F)cc2)cc1 (some centres not stated) | 13.9 µM |
| CCCNC(=O)C[C@@H]1CC[C@H]2[C@@H](COC[C@@H](O)CN2C(=O)Nc2ccc(Cl)c(Cl)c2)O1 | 8.45 µM |
| Cc1cccc(-c2ccc(C3[C@@H]4CN(Cc5ccccc5)C[C@H]3N4)cc2)c1 (some centres not stated) | 17.1 µM |
| Cc1cccc(-c2ccc([C@@H]3[C@@H]4CN(C(=O)CN(C)C)C[C@H]3N4)cc2)c1 | 61.5 µM |
| OC[C@H]1[C@H](c2ccc(C#CC3CCCC3)cc2)[C@H]2CN(CCC(F)(F)F)CCCCN21 | 16.8 µM |
| C(=C\c1ccc(C2[C@@H]3CN(Cc4ccc5c(c4)OCO5)C[C@H]2N3)cc1)/c1ccccc1 (some centres not stated) | 6.94 µM and 6.61 µM |
| COc1ccccc1CN1CC[C@@H]2[C@H]1c1cc(C#Cc3ccccc3)ccc1N[C@@H]2CO | 26.2 µM |
| C/C=C/c1ccc(C2[C@H]3CNC[C@@H]2N3Cc2cccc(F)c2)cc1 (some centres not stated) | 31.1 µM |
| COc1cccc(CN2[C@@H]3CNC[C@H]2C3c2ccc(-c3ccccc3C)cc2)c1 (some centres not stated) | 29.5 µM |
| Cc1ccccc1-c1ccc(C2[C@@H]3CN(C(=O)Nc4cccc(F)c4)C[C@H]2N3)cc1 (some centres not stated) | 39 µM |
| OC[C@H]1[C@@H](c2ccc(-c3ccc(F)cc3)cc2)[C@@H]2CN(CCC(F)(F)F)CCCCN12 | 72.8 µM |
| N#Cc1cccc(-c2ccc(C3[C@H]4CNC[C@@H]3N4Cc3ccc(F)cc3)cc2)c1 (some centres not stated) | 29.4 µM |
| Cc1ccc(-c2ccc(C3[C@H]4CNC[C@@H]3N4C(=O)Nc3ccc(F)cc3)cc2)cc1 (some centres not stated) | 64.4 µM |
| C/C=C/c1ccc(C2[C@@H]3CN(Cc4cccc(F)c4)C[C@H]2N3)cc1 (some centres not stated) | 14.3 µM and 27.3 µM |
| COc1cccc(S(=O)(=O)N2C[C@@H]3N[C@H](C2)C3c2ccc(-c3ccccc3C)cc2)c1 (some centres not stated) | 28.6 µM |
| O=S(=O)(c1ccccc1F)N1[C@@H]2CNC[C@H]1C2c1ccc(/C=C/c2ccccc2)cc1 (some centres not stated) | 73.5 µM |
| O=C(NC1CCCCC1)N1C[C@@H]2N[C@H](C1)C2c1ccc(-c2ccc(F)cc2)cc1 (some centres not stated) | 59.7 µM |
| C(=C\c1ccc(C2[C@H]3CNC[C@@H]2N3Cc2nccs2)cc1)/c1ccccc1 (some centres not stated) | 60.4 µM |
| O=C(c1ccc(F)cc1)N1C[C@@H]2N[C@H](C1)C2c1ccc(/C=C/c2ccccc2)cc1 (some centres not stated) | 13 µM |
| Cc1cccc(-c2ccc(C3[C@H]4CNC[C@@H]3N4C(=O)Nc3ccccc3Cl)cc2)c1 (some centres not stated) | 33.2 µM |
| O=C(NC[C@H]1N[C@H](CO)[C@@H]1c1ccc(C2=CCCCC2)cc1)c1ccc(F)cc1 | 29.1 µM |

| Structure (SMILES) | IC50 |
| --- | --- |
| COc1ccccc1-c1ccc(C2[C@@H]3CN(S(=O)(=O)c4ccccc4C)C[C@H]2N3)cc1 (some centres not stated) | 28.1 µM |
| COc1cccc(-c2ccc(C3[C@H]4CNC[C@@H]3N4Cc3cc(F)ccc3F)cc2)c1 (some centres not stated) | 30 µM |
| O=C(Nc1ccc(F)cc1)N1CCCCN2[C@@H](CO)[C@@H](c3ccc(-c4ccccc4F)cc3)[C@@H]2C1 | 35 µM |
| O=C(Nc1ccc(C(F)(F)F)cc1)N1C[C@@H]2N[C@H](C1)C2c1ccc(/C=C/c2ccccc2)cc1 (some centres not stated) | 1.98 µM and 3.86 µM |
| O=S(=O)(Cc1ccccc1)N1C[C@@H]2N[C@H](C1)C2c1ccc(-c2ccccc2)cc1 (some centres not stated) | 59.7 µM |
| COc1ccccc1CN1C[C@@H]2N[C@H](C1)C2c1ccc(/C=C/c2ccccc2)cc1 (some centres not stated) | 3.7 µM and 19 µM |
| O=C(Nc1cccc(F)c1)N1CCCCN2[C@@H](CO)[C@H](c3ccc(-c4ccccc4F)cc3)[C@@H]2C1 | 33.6 µM |
| N#Cc1cccc(-c2ccc(C3[C@@H]4CN(C(=O)Nc5ccc(C(F)(F)F)cc5)C[C@H]3N4)cc2)c1 (some centres not stated) | 11.8 µM and 7.72 µM |
| COc1cccc(S(=O)(=O)N2C[C@@H]3N[C@H](C2)C3c2ccc(/C=C/c3ccccc3)cc2)c1 (some centres not stated) | 12.7 µM |
| OC[C@@H]1Nc2ccc(C#Cc3ccc(F)cc3)cc2[C@H]2NCC[C@@H]12 | 59.4 µM |
| COc1cc(CN2C[C@@H]3N[C@H](C2)C3c2ccc(-c3ccc(C#N)cc3)cc2)cc(OC)c1 (some centres not stated) | 38.7 µM |
| OC[C@H]1[C@H](c2ccc(C#CC3CCCC3)cc2)[C@@H]2CN(CCC(F)(F)F)CCCCN12 | 35 µM |
| Cc1ccccc1-c1ccc(C2[C@@H]3CN(Cc4ccc5c(c4)OCO5)C[C@H]2N3)cc1 (some centres not stated) | 5.63 µM and 15.6 µM |
| Cc1cccc(-c2ccc(C3[C@@H]4CN(C(=O)C5CCCCC5)C[C@H]3N4)cc2)c1 (some centres not stated) | 26.6 µM |
| Cc1cccc(-c2ccc(C3[C@@H]4CN(Cc5ccccc5F)C[C@H]3N4)cc2)c1 (some centres not stated) | 6.22 µM |
| CCNC(=O)C[C@H]1CC[C@H]2[C@@H](COC[C@@H](O)CN2C(=O)Nc2ccc(C(F)(F)F)cc2)O1 | 8.27 µM |
| C/C=C/c1ccc(C2[C@@H]3CN(C(=O)Nc4ccc(C(F)(F)F)cc4)C[C@H]2N3)cc1 (some centres not stated) | 13.7 µM and 10.6 µM |
| O=S(=O)(c1ccccc1)N1C[C@@H]2N[C@H](C1)C2c1ccc(/C=C/c2ccccc2)cc1 (some centres not stated) | 8.5 µM |
| OC[C@@H]1Nc2ccc(C#Cc3cccc(F)c3)cc2[C@H]2NCC[C@@H]12 | 38.3 µM |
| COc1ccccc1NC(=O)N1CCCCN2[C@@H](CO)[C@H](c3ccc(-c4cccc(C)c4)cc3)[C@@H]2C1 | 93.9 µM |
| C/C=C/c1ccc(C2[C@H]3CNC[C@@H]2N3C(=O)Nc2ccc(C(F)(F)F)cc2)cc1 (some centres not stated) | 12 µM |
| N#Cc1ccc(-c2ccc([C@@H]3[C@H]4CNC[C@@H]3N4Cc3cc(F)ccc3F)cc2)cc1 | 58.8 µM |

| Structure (SMILES) | IC50 |
| --- | --- |
| CCNC(=O)C[C@@H]1CC[C@@H]2[C@H](COC[C@H](O)CN2C(=O)Nc2ccc(C(F)(F)F)cc2)O1 | 16.1 µM |
| O=S(=O)(c1ccc(F)cc1)N1C[C@@H]2N[C@H](C1)C2c1ccc(-c2ccc(F)cc2)cc1 (some centres not stated) | 128 µM |
| COc1cc(CN2[C@@H]3CNC[C@H]2C3c2ccc(-c3ccccc3C)cc2)cc(OC)c1 (some centres not stated) | 18.8 µM |
| O=C(Nc1ccccc1)N1CCCCN2[C@@H](CO)[C@@H](c3ccc(C#Cc4ccccc4)cc3)[C@@H]2C1 | 19 µM |
| Cc1ccc(-c2ccc(C3[C@H]4CNC[C@@H]3N4S(=O)(=O)c3ccccc3C)cc2)cc1 (some centres not stated) | 27.6 µM |
| Cc1cccc(-c2ccc([C@H]3[C@@H](CO)N4CCCCN(CCC(F)(F)F)C[C@@H]34)cc2)c1 | 50.5 µM |
| O=C(NC[C@@H]1N[C@@H](CO)[C@H]1c1ccc(C2=CCCCC2)cc1)c1ccccc1 | 65.8 µM |
| O=C(Nc1cccc(Cl)c1)N1[C@@H]2CNC[C@H]1C2c1ccc(-c2ccccc2)cc1 (some centres not stated) | 44.8 µM and 74.3 µM |
| O=C(c1cccc(F)c1)N1CCCCN2[C@H](CO)[C@H](c3ccc(/C=C/c4ccccc4)cc3)[C@H]2C1 | 140 µM |
| Cc1ccccc1-c1ccc(C2[C@@H]3CN(C(=O)c4ccc(F)cc4)C[C@H]2N3)cc1 (some centres not stated) | 64.6 µM |
| O=C(Nc1ccccc1)N1CCCCN2[C@H](CO)[C@H](c3ccc(C#Cc4ccccc4)cc3)[C@H]2C1 | 9.4 µM |
| COc1cccc(-c2ccc(C3[C@@H]4CN(S(=O)(=O)c5ccccc5F)C[C@H]3N4)cc2)c1 (some centres not stated) | 82 µM |
| OC[C@@H]1[C@H](c2ccc(-c3ccccc3)cc2)[C@@H]2CN(CCC(F)(F)F)CCCCN12 | 56.6 µM |
| OC[C@@H]1[C@@H](c2ccc(C#CC3CCCC3)cc2)[C@H]2CN(CCC(F)(F)F)CCCCN12 | 26.9 µM |
| Cc1ccc(-c2ccc([C@@H]3[C@@H](CO)N4CCCCN(S(=O)(=O)c5cccc(C)c5)C[C@H]34)cc2)cc1 | 10.7 µM |
| Fc1cccc(CN2C[C@@H]3N[C@H](C2)[C@@H]3c2ccc(-c3cccc(F)c3)cc2)c1 | 6.05 µM |
| C(=C\c1ccc(C2[C@@H]3CN(Cc4cocn4)C[C@H]2N3)cc1)/c1ccccc1 (some centres not stated) | 11 µM |
| OC[C@H]1[C@@H](c2ccc(C#CC3CCCC3)cc2)[C@H]2CN(CCC(F)(F)F)CCCCN21 | 9.49 µM |
| OC[C@@H]1[C@H](c2ccc(C3=CCCCC3)cc2)[C@@H]2CN(CCC(F)(F)F)CCCCN12 | 34.9 µM |
| COc1ccc(-c2ccc(C3[C@@H]4CN(Cc5cccc(OC)c5)C[C@H]3N4)cc2)cc1 (some centres not stated) | 38.5 µM and 16.2 µM |
| CCCC#Cc1ccc([C@H]2[C@H](CO)N3CCCCN(S(=O)(=O)c4ccccc4C)C[C@@H]23)cc1 | > 240 µM (inactive) |
